According to US5633263A, “Linear somatostatin analogs” (The Administrators of the Tulane Educational Fund, priority 1994, dated 1997):
Where a SMILES comes first, the peptide text is derived from it. [ ]: non-standard residue; d: D form.

Tests used:
[1] = molecular target: [125I-Tyr11]SRIF-14 binding to crude membrane preparations from rat pancreas; test: Inhibition of [125I]SRIF-14 binding, pancreas membranes; conditions: for IC50: rat pancreas membranes, [125I]SRIF-14 approximately 0.05 nM, read-out: IC50 (nM) Pancreas, inhibition of I125 SRIF-14 binding
Protocol: (§1) Crude membrane preparations were obtained from rat pancreas, cerebral cortex, or human small cell lung carcinoma (NCI-H69) cells by homogenizing (Polytron, setting 6, 15 sec) the tissues or cells in ice-cold 50 mM Tris-HCl and centrifuging twice at 39,000× g (10 min), with an intermediate resuspension in fresh buffer. The final pellets were resuspended in 10 mM Tris-HCl for assay. Aliquots of the membrane preparation were incubated for 25 min at 30° C. with labeled somatotropin-release-inhibiting factor, [^125 I-Tyr^11 ] SRIF-14 (2000 Ci/mmol, Amersham Corp.), in 50 mM HEPES (pH 7.4) containing bovine serum albumin (10 mg/ml; fraction V, Sigma Chem.), MgCl2 (5mM), Trasylol (200 KIU/ml), bacitracin (0.02 mg/ml), and phenylmethylsulphonyl fluoride (0.02 mg/ml). The final assay volume was 0.3 ml. The incubations were terminated by rapid filtration through Whatman GF/C filters (pre-soaked in 0.3% polyethylenimine) under reduced pressure. Each tube and filter were then washed three times with 5 ml aliquots of ice-cold buffer. Specific binding was defined as the total [^125 I]SRIF-14 bound minus that bound in the presence of 200 nM unlabelled SRIF-14.
Table 1 gives results of inhibition of [^125 I]SRIF-14 binding by linear peptides of the invention. The concentration of [^125 I]SRIF-14 was approximately 0.05 nM. (Values in parenthesis indicate the number of independent determinations.) The IC50 (concentration of analog resulting is 50% competitive inhibition) in nM values are indicated for pancreas, small cell lung carcinoma (SCLC), and brain. […] Peptide DC-23-85, which is not within the invention, inhibits the binding of I^125 SRIF-14 only poorly.

[2] = system: [125I-Tyr11]SRIF-14 binding to crude membrane preparations from human small cell lung carcinoma (NCI-H69) cells; test: Inhibition of [125I]SRIF-14 binding, SCLC membranes; conditions: [125I]SRIF-14 approximately 0.05 nM, read-out: IC50 (nM) SCLC, inhibition of I125 SRIF-14 binding
Protocol: as §1
(§2) Table 1 gives results of inhibition of [^125 I]SRIF-14 binding by linear peptides of the invention. The concentration of [^125 I]SRIF-14 was approximately 0.05 nM. […]

[3] = molecular target: [125I-Tyr11]SRIF-14 binding to crude membrane preparations from rat cerebral cortex; test: Inhibition of [125I]SRIF-14 binding, brain membranes; conditions: [125I]SRIF-14 approximately 0.05 nM, read-out: IC50 (nM) Brain, inhibition of I125 SRIF-14 binding
Protocol: as §1, §2

## C[C@@H](O)[C@H](NC(=O)[C@H](Cc1ccccc1)NC(=O)[C@@H](NC(=O)[C@H](CCCCN)NC(=O)[C@@H](Cc1c[nH]c2ccccc12)NC(=O)[C@H](Cc1ccccc1)NC(=O)[C@H](Cc1ccccc1)NC(=O)[C@H](N)Cc1ccccc1)[C@@H](C)O)C(N)=O [BIM-23052/DC-23-99, D-Phe-Phe-Phe-D-Trp-Lys-Thr-Phe-Thr-NH2] (H-[dF]FF[dW]KTFT-NH2)
[1]
  IC50: 9.4 nM
[1]; summary in words of Table 1 (pancreas, SCLC, brain)
  inhibiting the binding of I125 SRIF-14 (in words): particularly effective
[2]
  IC50: 1.2 nM
[3]
  IC50: 7.3 nM

## C[C@H](N)C(=O)NCC(=O)N[C@H]1CSSC[C@@H](C(=O)O)NC(=O)[C@H](CO)NC(=O)[C@H]([C@@H](C)O)NC(=O)[C@H](Cc2ccccc2)NC(=O)[C@H]([C@@H](C)O)NC(=O)[C@H](CCCCN)NC(=O)[C@H](Cc2c[nH]c3ccccc23)NC(=O)[C@H](Cc2ccccc2)NC(=O)[C@H](Cc2ccccc2)NC(=O)[C@H](CC(N)=O)NC(=O)[C@H](CCCCN)NC1=O [Somatostatin, Ala-Gly-Cys-Lys-Asn-Phe-Phe-Trp-Lys-Thr-Phe-Ser-OH]
[1]
  IC50: 0.53 nM
[2]
  IC50: 4.2 nM
[3]
  IC50: 0.53 nM
